Data: the C3SDB collision cross section collection
“And” between values parts separate entries of the source, which are not always exact repeats. Equal values may be shown once.

Columns and labels:
[1] = instrument: DT, stepped-field
[2] = [M+H]+; instrument: TW; Major Mix IMS/Tof Calibration Kit (Waters)

## OCC1OC(OC2C(CO)OC(OC3C(CO)OC(OC4C(CO)OC(O)C(O)C4O)C(O)C3O)C(O)C2O)C(O)C(O)C1O (stereo unspecified) [(Hex)4]
[1]; [M+H-H2O]+
  collision cross section (N2): 234.7 Å²
[1]; [M+K]+
  collision cross section (N2): 236.6 Å²
[1]; [M+Na-H2O]+
  collision cross section (N2): 234.8 Å²

## OCC1OC(OC2C(CO)OC(OC3C(CO)OC(OC4C(CO)OC(OC5C(CO)OC(OC6C(CO)OC(OC7C(CO)OC(OC8C(CO)OC(O)C(O)C8O)C(O)C7O)C(O)C6O)C(O)C5O)C(O)C4O)C(O)C3O)C(O)C2O)C(O)C(O)C1O (stereo unspecified) [(Hex)8]
[1]; [M+H-H2O]+
  collision cross section (N2): 333.8 Å²
[1]; [M+Na]+
  collision cross section (N2): 320.9 Å² and 338.8 Å²

## O=CC(OC1OC(CO)C(OC2OC(CO)C(O)C(O)C2O)C(OC2OC(CO)C(O)C(O)C2O)C1OC1OC(CO)C(O)C(O)C1O)C(OC1OC(CO)C(O)C(O)C1O)C(OC1OC(CO)C(O)C(O)C1O)C(COC1OC(CO)C(O)C(O)C1O)OC1OC(CO)C(O)C(O)C1O (stereo unspecified) [(Hex)9]
[1]; [M+H-H2O]+
  collision cross section (N2): 356.2 Å²
[1]; [M+Na]+
  collision cross section (N2): 340.5 Å² and 351.9 Å²

## OCC1OC(OC2C(CO)OC(OC3C(CO)OC(OC4C(CO)OC(OC5C(CO)OC(OC6C(CO)OC(OC7C(CO)OC(OC8C(CO)OC(OC9C(CO)OC(OC%10C(CO)OC(OC%11C(CO)OC(OC%12C(CO)OC(O)C(O)C%12O)C(O)C%11O)C(O)C%10O)C(O)C9O)C(O)C8O)C(O)C7O)C(O)C6O)C(O)C5O)C(O)C4O)C(O)C3O)C(O)C2O)C(O)C(O)C1O (stereo unspecified) [(Hex)12]
[1]; [M+H-H2O]+
  collision cross section (N2): 400.3 Å² and 422.9 Å²
[1]; [M+Na-H2O]+
  collision cross section (N2): 390.6 Å² and 410 Å²

## C[C@H](N)C(=O)N[C@@H](Cc1ccccc1)C(=O)N[C@@H](CC(=O)O)C(=O)N[C@@H](CCC(=O)O)C(=O)N[C@@H](CCCCN)C(=O)O [AFDEK]
[1]; [M+H]+
  collision cross section (N2): 238.3 Å²

## CSCC[C@H](NC(=O)[C@H](C)N)C(=O)NCC(=O)N[C@@H](Cc1ccc(O)cc1)C(=O)N[C@@H](CCCNC(=N)N)C(=O)O [AMGYR]
[1]; [M+H]+
  collision cross section (N2): 245 Å²

## CCCCC1=NC2(CCCC2)C(=O)N1Cc1ccc(-c2ccccc2-c2nn[nH]n2)cc1 [Irbesartan]
[2]
  collision cross section (N2): 200.8 Å²

## NC1(c2ccccc2Cl)CCCCC1=O (stereo unspecified) [Ketamine-M nor]
[2]
  collision cross section (N2): 147.1 Å²

## CNC1(c2ccccc2Cl)CCCCC1=O (stereo unspecified) [Ketamine]
[2]
  collision cross section (N2): 149.2 Å²

## COc1ccc2c(c1)N(C[C@H](C)CN(C)C)c1ccccc1S2 [Levomepromazine]
[2]
  collision cross section (N2): 176.8 Å²

## CNC(=O)C(CCN1CCC(O)(c2ccc(Cl)cc2)CC1)(c1ccccc1)c1ccccc1 [Loperamide-M Desmethyl]
[2]
  collision cross section (N2): 218.7 Å²

## CCOC(=O)N1CCC(=C2c3ccc(Cl)cc3CCc3cccnc32)CC1 [Loratadine]
[2]
  collision cross section (N2): 187.4 Å²

## O=C1Nc2ccc(Cl)cc2C(c2ccccc2Cl)=NC1O (stereo unspecified) [Lorazepam]
[2]
  collision cross section (N2): 165.8 Å²

## CNC(C)Cc1ccc2c(c1)OCO2 (stereo unspecified) [MDMA]
[2]
  collision cross section (N2): 144.9 Å²

## CCCC(C(=O)c1ccc2c(c1)OCO2)N1CCCC1 (stereo unspecified) [MDPV]
[2]
  collision cross section (N2): 166.7 Å²

## CCOC(=O)CC(SP(=S)(OC)OC)C(=O)OCC (stereo unspecified) [Malathion]
[2]
  collision cross section (N2): 165.9 Å²

## NCCCC12CCC(c3ccccc31)c1ccccc12 [Maprotiline-M N-desmethyl]
[2]
  collision cross section (N2): 163.1 Å²

## Cc1cccc(CN2CCN(C(c3ccccc3)c3ccc(Cl)cc3)CC2)c1 (stereo unspecified) [Meclozine]
[2]
  collision cross section (N2): 208.2 Å²

## CN1CCN=C(c2ccccc2)c2cc(Cl)ccc21 [Medazepam]
[2]
  collision cross section (N2): 160.8 Å²

## Cc1cnc(NC(=O)C2=C(O)c3ccccc3S(=O)(=O)N2C)s1 [Meloxicam]
[2]
  collision cross section (N2): 173.9 Å²

## COc1ccc(CN(CCN(C)C)c2ccccn2)cc1 [Mepyramine]
[2]
  collision cross section (N2): 169.6 Å²

## CCC(=O)C(CC(C)N(C)C)(c1ccccc1)c1ccccc1 (stereo unspecified) [Methadone]
[2]
  collision cross section (N2): 177.7 Å²

## COC(=O)C(c1ccccc1)C1CCCCN1 (stereo unspecified) [Methylphenidate]
[2]
  collision cross section (N2): 154.2 Å²

## CS(=O)(=O)c1ccc2c(c1)N(CCCN1CCC(C(N)=O)CC1)c1ccccc1S2 [Metopimazine]
[2]
  collision cross section (N2): 196.3 Å²

## Cc1ncc([N+](=O)[O-])n1CCO [Metronidazole]
[2]
  collision cross section (N2): 132.4 Å²

## Cc1ncc2n1-c1ccc(Cl)cc1C(c1ccccc1F)=NC2 [Midazolam]
[2]
  collision cross section (N2): 172.8 Å²

## CN1CC[C@]23c4c5ccc(O)c4O[C@H]2[C@@H](O)C=C[C@H]3[C@H]1C5 [Morphine]
[2]
  collision cross section (N2): 164 Å²

## CCc1nn(CCCN2CCN(c3cccc(Cl)c3)CC2)c(=O)n1CCOc1ccccc1 [Nefazodone]
[2]
  collision cross section (N2): 211.7 Å²

## Nc1ccc2c(c1)C(c1ccccc1)=NCC(=O)N2 [Nitrazepam-M 7-amino]
[2]
  collision cross section (N2): 158.1 Å²

## CCOC(=O)C1=C(C)NC(C)=C(C(=O)OC)C1c1cccc([N+](=O)[O-])c1 (stereo unspecified) [Nitrendipine]
[2]
  collision cross section (N2): 182.2 Å²

## Cc1nccn1CC1CCc2c(c3cccc(O)c3n2C)C1=O (stereo unspecified) [Ondansetron-M 8-hydroxy]
[2]
  collision cross section (N2): 173.7 Å²

## O=C1Nc2ccc(Cl)cc2C(c2ccccc2)=NC1O (stereo unspecified) [Oxazepam]
[2]
  collision cross section (N2): 162.3 Å²

## COc1ccc2c3c1O[C@H]1C(=O)CC[C@@]4(O)[C@@H](C2)N(C)CC[C@]314 [Oxycodone]
[2]
  collision cross section (N2): 168.3 Å²

## CCC(=O)NS(=O)(=O)c1ccc(-c2c(-c3ccccc3)noc2C)cc1 [Parecoxib]
[2]
  collision cross section (N2): 189.2 Å²

## N#Cc1ccc2c(c1)N(CCCN1CCC(O)CC1)c1ccccc1S2 [Periciazine]
[2]
  collision cross section (N2): 186.4 Å²

## OCCN1CCN(CCCN2c3ccccc3Sc3ccc(Cl)cc32)CC1 [Perphenazine]
[2]
  collision cross section (N2): 193.2 Å²

## CCOc1ccc(NC(C)=O)cc1 [Phenacetin]
[2]
  collision cross section (N2): 139.4 Å²

## CN1C(C(=O)Nc2ccccn2)=C(O)c2ccccc2S1(=O)=O [Piroxicam]
[2]
  collision cross section (N2): 170.9 Å²

## O=C1CN=C(c2ccccc2)c2cc(Cl)ccc2N1CC1CC1 [Prazepam]
[2]
  collision cross section (N2): 174 Å²

## COc1cc2nc(N3CCN(C(=O)c4ccco4)CC3)nc(N)c2cc1OC [Prazosin]
[2]
  collision cross section (N2): 192.7 Å²

## CN1CCN(CCCN2c3ccccc3Sc3ccc(Cl)cc32)CC1 [Prochlorperazine]
[2]
  collision cross section (N2): 183.7 Å²

## CN(C)CCc1c[nH]c2cccc(OP(=O)(O)O)c12 [Psilocybine]
[2]
  collision cross section (N2): 157.3 Å²

## CCOC(=O)[C@H](CCc1ccccc1)N[C@@H](C)C(=O)N1[C@H](C(=O)O)C[C@@H]2CCC[C@@H]21 [Ramipril]
[2]
  collision cross section (N2): 197 Å²

## Cc1nc2n(c(=O)c1CCN1CCC(c3noc4cc(F)ccc34)CC1)CCCC2 [Risperidone]
[2]
  collision cross section (N2): 205.5 Å²

## CCN(C)C(=O)Oc1cccc([C@H](C)N(C)C)c1 [Rivastigmine]
[2]
  collision cross section (N2): 165 Å²

## OCc1cc([C@@H](O)CNCCCCCCOCCCCc2ccccc2)ccc1O [Salmeterol]
[2]
  collision cross section (N2): 202.9 Å²

## CC(C)NCC(O)c1ccc(NS(C)(=O)=O)cc1 (stereo unspecified) [Sotalol]
[2]
  collision cross section (N2): 167 Å²

## C[C@]12Cc3cn[nH]c3C[C@@H]1CC[C@@H]1[C@@H]2CC[C@@]2(C)[C@H]1CC[C@]2(C)O [Stanozolol]
[2]
  collision cross section (N2): 188.1 Å²

## O=C1C[C@@H]2OCC=C3CN4CC[C@]56c7ccccc7N1[C@H]5[C@H]2[C@H]3C[C@H]46 [Strychnine]
[2]
  collision cross section (N2): 172 Å²

## Cc1cc(NS(=O)(=O)c2ccc(N)cc2)no1 [Sulfamethoxazole]
[2]
  collision cross section (N2): 151 Å²

## CC1=C(CC(=O)O)c2cc(F)ccc2/C1=C\c1ccc(S(C)=O)cc1 (stereo unspecified) [Sulindac]
[2]
  collision cross section (N2): 192.6 Å²

## CNS(=O)(=O)Cc1ccc2[nH]cc(CCN(C)C)c2c1 [Sumatriptan]
[2]
  collision cross section (N2): 162.1 Å²

## CC[C@@H](c1cccc(O)c1)[C@@H](C)CN(C)C [Tapentadol]
[2]
  collision cross section (N2): 152.1 Å²

## CN(C/C=C/C#CC(C)(C)C)Cc1cccc2ccccc12 [Terbinafine]
[2]
  collision cross section (N2): 187.2 Å²

## CSc1ccc2c(c1)N(CCC1CCCCN1C)c1ccccc1S2 (stereo unspecified) [Thioridazine]
[2]
  collision cross section (N2): 184.9 Å²

## Cc1ccsc1C(=CCCN1CCC[C@@H](C(=O)O)C1)c1sccc1C [Tiagabine]
[2]
  collision cross section (N2): 184.5 Å²

## CC(C(=O)O)c1ccc(C(=O)c2ccccc2)s1 (stereo unspecified) [Tiaprofenic acid]
[2]
  collision cross section (N2): 155.1 Å²

## COc1cc(Cc2cnc(N)nc2N)cc(OC)c1OC [Trimethoprim]
[2]
  collision cross section (N2): 170.8 Å²

## CNCCC=C1c2ccccc2CCc2ccccc21 [Triptyline-M nor]
[2]
  collision cross section (N2): 164.5 Å²

## c1cnc2cc3c(cc2n1)[C@@H]1CNC[C@H]3C1 [Varenicline]
[2]
  collision cross section (N2): 151 Å²

## O=C1Cc2cc(CCN3CCN(c4nsc5ccccc45)CC3)c(Cl)cc2N1 [Ziprasidone]
[2]
  collision cross section (N2): 192.6 Å²
